Measured values as given in US20120177698A1, “AGGREGATES WITH INCREASED DEFORMABILITY, COMPRISING AT LEAST THREE AMPHIPATS, FOR IMPROVED TRANSPORT THROUGH SEMI-PERMEABLE BARRIERS AND FOR THE NON-INVASIVE DRUG APPLICATION IN VIVO, ESPECIALLY THROUGH THE SKIN” (priority 2002, published 2012).

Test: Barrier transport resistance, simple experimental method (SEM), filtration through 0.2 micrometer filter
Type: physicochemical
Conditions: Examples 121-129; relative SDS concentration in SPC/Tween 80 bilayer; some uncertainty in the 2-6 mol % region
Text: In first approximation one relies on simple experimental method (SEM) and takes barrier transport resistance (in arbitrary units) to be proportional to the pressure (in arbitrary units) needed to drive a suspension of relatively large vesicles through a 0.2 micrometer filter with good efficacy. […] Barrier penetrability, which in older publications is called permeability, is identified with inverse barrier resistance value. […] Drug Delivery Rev. 18:349-378 (1996).
Transport (pore penetration) capability. […] The trend is enhanced by the presence of sodium dodecylsulphate in the mixed lipid aggregates. The later shifts the minimum amount of Tween needed to cross the semi-permeable barrier to increasingly lower relative concentration values.
Transport ability ([…] capability and adaptability) of aggregate suspension. To characterise the resistance of semi-permeable barrier to suspension flux (=transbarrier flux), the same method as in examples 1-120 was used. The resistance was measured as a function of relative SDS concentration in bilayer, to determine minimum amount of this latter surfactant that is needed to maximise suspension flux across the barrier and minimises the barrier transport resistance value. […] This is consistent with the results of first test series (examples 1-120) except in that the measured resistance values are now somewhat higher. […]

threshold limit: minimum amount of SDS needed to minimise barrier transport resistance: around 6 mol-%
SMILES: CCCCCCCCCCCCOS(=O)(=O)[O-].[Na+] [SDS, Sodium dodecylsulphate]
